Results reported in ChEMBL document CHEMBL4359915, “Design, synthesis and biological evaluation of novel diazaspiro[4.5]decan-1-one derivatives as potential chitin synthase inhibitors and antifungal agents” (Eur J Med Chem, 2019).
Values after ≈ are worked out from the molar mass of the structure shown. Blank lines part the entries; values can stand above or below the compound they belong to.

Experiments:
Candida tropicalis = experiment: Inhibition of Candida tropicalis ATCC 750 chitin synthase at 300 ug/ml using UDP-GlcNAc as substrate relative to control
Candida albicans [1] = experiment: Antifungal activity against Candida albicans ATCC 76615 assessed as growth inhibition measured after 24 hrs by two-fold broth dilution method; format: functional; conditions: ATCC 76615, 24 h
Aspergillus fumigatus [2] = experiment: Antifungal activity against Aspergillus fumigatus GIMCC 3.19 assessed as growth inhibition measured after 24 hrs by two-fold broth dilution method; format: functional; conditions: GIMCC 3.19, 24 h
Candida albicans [3] = experiment: Antifungal activity against Candida albicans ATCC 90023 assessed as growth inhibition measured after 24 hrs by two-fold broth dilution method; format: functional; conditions: ATCC 90023, 24 h
Cryptococcus neoformans [4] = experiment: Antifungal activity against Cryptococcus neoformans ATCC 32719 assessed as growth inhibition measured after 24 hrs by two-fold broth dilution method; format: functional; conditions: ATCC 32719, 24 h
Aspergillus flavus [5] = experiment: Antifungal activity against Aspergillus flavus ATCC 16870 assessed as growth inhibition measured after 24 hrs by two-fold broth dilution method; format: functional; conditions: ATCC 16870, 24 h
Staphylococcus aureus [6] = experiment: Antibacterial activity against methicillin-resistant Staphylococcus aureus N315 assessed as growth inhibition measured after 24 hrs by two-fold broth dilution method; format: functional; conditions: N315, 24 h
Staphylococcus aureus [7] = experiment: Antibacterial activity against Staphylococcus aureus ATCC 25923 assessed as growth inhibition measured after 24 hrs by two-fold broth dilution method; format: functional; conditions: ATCC 25923, 24 h
Bacillus spizizenii = experiment: Antibacterial activity against Bacillus subtilis ATCC 6633 assessed as growth inhibition measured after 24 hrs by two-fold broth dilution method; format: functional; conditions: ATCC 6633, 24 h
Escherichia coli = experiment: Antibacterial activity against Escherichia coli JM 109 assessed as growth inhibition measured after 24 hrs by two-fold broth dilution method; format: functional; conditions: JM 109, 24 h
Pseudomonas aeruginosa = experiment: Antibacterial activity against Pseudomonas aeruginosa ATCC 9027 assessed as growth inhibition measured after 24 hrs by two-fold broth dilution method; format: functional; conditions: ATCC 9027, 24 h
[8] = Inhibition of Candida tropicalis ATCC 750 chitin synthase using UDP-GlcNAc as substrate
Candida albicans [9] = experiment: Antifungal activity against Candida albicans ATCC 76615 assessed as fractional inhibitory concentration index after 24 hrs in presence of fluconazole by two-dimensional broth microdilution checkboard assay; format: functional
Aspergillus fumigatus [10] = experiment: Antifungal activity against Aspergillus fumigatus GIMCC 3.19 assessed as fractional inhibitory concentration index after 24 hrs in presence of fluconazole by two-dimensional broth microdilution checkboard assay; format: functional
Cryptococcus neoformans [11] = experiment: Antifungal activity against Cryptococcus neoformans ATCC 32719 assessed as fractional inhibitory concentration index after 24 hrs in presence of fluconazole by two-dimensional broth microdilution checkboard assay; format: functional
Aspergillus flavus [12] = experiment: Antifungal activity against Aspergillus flavus ATCC 16870 assessed as fractional inhibitory concentration index after 24 hrs in presence of fluconazole by two-dimensional broth microdilution checkboard assay; format: functional
Candida albicans [13] = experiment: Antifungal activity against Candida albicans ATCC 76615 after 24 hrs in presence of fluconazole by two-dimensional broth microdilution checkboard assay; format: functional; conditions: ATCC 76615, 24 h
Aspergillus fumigatus [14] = experiment: Antifungal activity against Aspergillus fumigatus GIMCC 3.19 after 24 hrs in presence of fluconazole by two-dimensional broth microdilution checkboard assay; format: functional; conditions: GIMCC 3.19, 24 h
Cryptococcus neoformans [15] = experiment: Antifungal activity against Cryptococcus neoformans ATCC 32719 after 24 hrs in presence of fluconazole by two-dimensional broth microdilution checkboard assay; format: functional; conditions: ATCC 32719, 24 h
Aspergillus flavus [16] = experiment: Antifungal activity against Aspergillus flavus ATCC 16870 after 24 hrs in presence of fluconazole by two-dimensional broth microdilution checkboard assay; format: functional; conditions: ATCC 16870, 24 h
Proteus vulgaris = experiment: Antibacterial activity against Bacillus proteus ATCC 8427 assessed as growth inhibition measured after 24 hrs by two-fold broth dilution method; format: functional; conditions: ATCC 8427, 24 h
Candida albicans [17] = experiment: Antifungal activity against Candida albicans ATCC 76615 assessed as fluconazole MIC after 24 hrs in presence of fluconazole by two-dimensional broth microdilution checkboard assay; format: functional; conditions: ATCC 76615, 24 h
Aspergillus fumigatus [18] = experiment: Antifungal activity against Aspergillus fumigatus GIMCC 3.19 assessed as fluconazole MIC after 24 hrs in presence of fluconazole by two-dimensional broth microdilution checkboard assay; format: functional; conditions: GIMCC 3.19, 24 h
Cryptococcus neoformans [19] = experiment: Antifungal activity against Cryptococcus neoformans ATCC 32719 assessed as fluconazole MIC after 24 hrs in presence of fluconazole by two-dimensional broth microdilution checkboard assay; format: functional; conditions: ATCC 32719, 24 h
Aspergillus flavus [20] = experiment: Antifungal activity against Aspergillus flavus ATCC 16870 assessed as fluconazole MIC after 24 hrs in presence of fluconazole by two-dimensional broth microdilution checkboard assay; format: functional; conditions: ATCC 16870, 24 h
[21] = Inhibition of Saccharomyces cerevisiae CGMCC 2.145 chitin synthase using GlcNAc and UDP-GlcNAc as substrate incubated for 60 mins by microplate reader analysis

Structure (SMILES): O=C(Nc1ccc(F)c(Cl)c1)[C@H](O)[C@@H](O)C(=O)N1CCC2(CCNC2=O)CC1
inhibition (Candida tropicalis): 70.6%
MIC (Candida albicans [1]): 309 µM
MIC (Aspergillus fumigatus [2]): 155 µM
MIC (Candida albicans [3]): 150 µM (≈ 62.1 µg/mL)
MIC (Cryptococcus neoformans [4]): 309 µM
MIC (Aspergillus flavus [5]): 155 µM
MIC (Staphylococcus aureus [6]): 150 µM (≈ 62.1 µg/mL)
MIC (Staphylococcus aureus [7]): 310 µM (≈ 128 µg/mL)
MIC (Bacillus spizizenii): 620 µM (≈ 257 µg/mL)
MIC (Escherichia coli): 310 µM (≈ 128 µg/mL)
MIC (Pseudomonas aeruginosa): 620 µM (≈ 257 µg/mL)
IC50 [8]: 220 µM
fractional inhibitory concentration index (FICI) (Candida albicans [9]): 1.3
fractional inhibitory concentration index (FICI) (Aspergillus fumigatus [10]): 1.5
fractional inhibitory concentration index (FICI) (Cryptococcus neoformans [11]): 2.3
fractional inhibitory concentration index (FICI) (Aspergillus flavus [12]): 1
MIC (Candida albicans [13]): 77 µM
MIC (Aspergillus fumigatus [14]): 155 µM
MIC (Cryptococcus neoformans [15]): 77 µM
MIC (Aspergillus flavus [16]): 77 µM
MIC (Proteus vulgaris): 310 µM (≈ 128 µg/mL)
MIC (Candida albicans [17]): 52 µM
MIC (Aspergillus fumigatus [18]): 52 µM
MIC (Cryptococcus neoformans [19]): 104 µM
MIC (Aspergillus flavus [20]): 104 µM

MIC (Candida albicans [1]): 16 to 64 µg/mL
MIC (Aspergillus fumigatus [2]): 16 to 64 µg/mL
MIC (Cryptococcus neoformans [4]): 16 to 64 µg/mL
MIC (Aspergillus flavus [5]): 16 to 64 µg/mL
IC50 [21]: 100 µM
Structure (SMILES): COc1ccc(N2CCN(C(=O)[C@H](O)[C@@H](O)C(=O)Nc3c(O)c4cc(O)ccc4oc3=O)CC2)cc1

Structure (SMILES): COc1ccc(NC(=O)[C@H](O)[C@@H](O)C(=O)N2CCC3(CCNC3=O)CC2)cc1
inhibition (Candida tropicalis): 78.3%
MIC (Candida albicans [1]): 164 µM
MIC (Aspergillus fumigatus [2]): 82 µM
MIC (Candida albicans [3]): 330 µM (≈ 129 µg/mL)
MIC (Cryptococcus neoformans [4]): 327 µM
MIC (Aspergillus flavus [5]): 164 µM
MIC (Staphylococcus aureus [6]): 650 µM (≈ 254 µg/mL)
MIC (Staphylococcus aureus [7]): 330 µM (≈ 129 µg/mL)
MIC (Bacillus spizizenii): 1310 µM (≈ 513 µg/mL)
MIC (Escherichia coli): 330 µM (≈ 129 µg/mL)
MIC (Pseudomonas aeruginosa): 1310 µM (≈ 513 µg/mL)
IC50 [8]: 120 µM
fractional inhibitory concentration index (FICI) (Candida albicans [9]): 2
fractional inhibitory concentration index (FICI) (Aspergillus fumigatus [10]): 1
fractional inhibitory concentration index (FICI) (Cryptococcus neoformans [11]): 1.5
fractional inhibitory concentration index (FICI) (Aspergillus flavus [12]): 0.8
MIC (Candida albicans [13]): 164 µM
MIC (Aspergillus fumigatus [14]): 41 µM
MIC (Cryptococcus neoformans [15]): 327 µM
MIC (Aspergillus flavus [16]): 82 µM
MIC (Proteus vulgaris): 330 µM (≈ 129 µg/mL)
MIC (Candida albicans [17]): 52 µM
MIC (Aspergillus fumigatus [18]): 52 µM
MIC (Cryptococcus neoformans [19]): 26 µM
MIC (Aspergillus flavus [20]): 52 µM

Structure (SMILES): O=C(Nc1ccc(Cl)cc1)[C@H](O)[C@@H](O)C(=O)N1CCC2(CCNC2=O)CC1
inhibition (Candida tropicalis): 66.5%
MIC (Candida albicans [1]): 162 µM
MIC (Aspergillus fumigatus [2]): 323 µM
MIC (Candida albicans [3]): 320 µM (≈ 127 µg/mL)
MIC (Cryptococcus neoformans [4]): 162 µM
MIC (Aspergillus flavus [5]): 323 µM
MIC (Staphylococcus aureus [6]): 650 µM (≈ 257 µg/mL)
MIC (Staphylococcus aureus [7]): 320 µM (≈ 127 µg/mL)
MIC (Bacillus spizizenii): 1290 µM (≈ 511 µg/mL)
MIC (Escherichia coli): 320 µM (≈ 127 µg/mL)
MIC (Pseudomonas aeruginosa): 1290 µM (≈ 511 µg/mL)
IC50 [8]: 270 µM
fractional inhibitory concentration index (FICI) (Candida albicans [9]): 0.3
fractional inhibitory concentration index (FICI) (Aspergillus fumigatus [10]): 0.8
fractional inhibitory concentration index (FICI) (Cryptococcus neoformans [11]): 2
fractional inhibitory concentration index (FICI) (Aspergillus flavus [12]): 1
MIC (Candida albicans [13]): 10 µM
MIC (Aspergillus fumigatus [14]): 81 µM
MIC (Cryptococcus neoformans [15]): 162 µM
MIC (Aspergillus flavus [16]): 162 µM
MIC (Proteus vulgaris): 650 µM (≈ 257 µg/mL)
MIC (Candida albicans [17]): 13 µM
MIC (Aspergillus fumigatus [18]): 52 µM
MIC (Cryptococcus neoformans [19]): 52 µM
MIC (Aspergillus flavus [20]): 104 µM
